The assay deals with SARS-CoV-2 M^pro (Severe acute respiratory syndrome coronavirus 2 (2019-nCoV) (SARS-CoV-2), UniProt P0DTD1). As to the kind of experiment: biochemical. The following applies: for IC50: compounds evaluated at 0.015-300 μM, read-out: IC50.
Setting [1] is: read-out: Activity (% enzyme activity by fluorescence relative to initial enzyme activity), compound at 17 μM, duplicates, 20 min pre-incubation.
Where [2] appears, read: compound at 17 μM, duplicates, 20 min pre-incubation, read-out: Activity (% enzyme activity by fluorescence relative to initial enzyme activity).

For orientation: IC50 means the concentration needed to halve the response being measured.

Where two headings read alike, the source gives them in different places.

On to `C=C(C)C(CC=C(C)C)Cc1c(O)cc(O)c2c1O[C@H](c1ccc(O)cc1O)[C@@H](O)C2=O` (some centres unmarked) [Kushenol X], for which the remaining activity at 17 µM under setting [1] is more than 80%.

`CC(C)=CCCC1(C)C=Cc2c(cc3c(c2O)C(=O)C[C@@H](c2ccc(O)cc2O)O3)O1` (some centres unmarked) [Kuwanol C]: under setting [1], the remaining activity at 17 µM is 10 to 80%.

As to `CC(C)=CCc1c(O)ccc(C(=O)[C@@H]2C(c3c(O)cc(O)c4c(=O)c(CC=C(C)C)c(-c5ccc(O)cc5O)oc34)C=C(C)CC2c2ccc(O)cc2O)c1O` (some centres unmarked) [Kuwanon H], the remaining activity at 17 µM under setting [2] lay in the range of 10 to 80%.

Regarding `C=C(C)[C@H](CC=C(C)C)Cc1c(O)cc(O)c2c1O[C@H](c1ccc(O)cc1OC)CC2=O` [Leachianone A], the “Activity (% enzyme activity by fluorescence relative to initial enzyme activity)” value (compound at 17 μM, duplicates, 20 min pre-incubation) was “+ (≥80% enzyme activity as indicated by fluorescence measurements)”.

Turning to `CC(C)=CCc1c(O)cc(O)c2c1O[C@H](c1ccc(O)cc1O)CC2=O` [Leachianone G], under setting [1], the remaining activity at 17 µM was more than 80%.

On to `CC(C)=CCc1c(O)cc(O)c2c(=O)cc(-c3ccc(O)cc3)oc12` [Licoflavone C], for which, under setting [2], the remaining activity at 17 µM was more than 80%.

Regarding `CC(C)=CCc1c(O)cc2oc(-c3ccc(O)cc3)c(O)c(=O)c2c1O` [Licoflavonol], the remaining activity at 17 µM under setting [1] is more than 80%.

In the case of `CC(C)=CCc1c(O)ccc(-c2coc3cc(O)cc(O)c3c2=O)c1O` [Licoisoflavone A], the remaining activity at 17 µM under setting [2] is more than 80%.

Take `COc1c(CC=C(C)C)c(O)cc2c1C[C@H](c1ccc(O)c(CC=C(C)C)c1O)CO2` [Licoricidin]: the remaining activity at 17 µM under setting [1] is more than 80%.

With `COc1cc(O)c(-c2coc3cc(O)ccc3c2=O)c(OC)c1CC=C(C)C` [Licoricone], the remaining activity at 17 µM under setting [1] was more than 80%.

Consider `COc1cc2c(c(OC)c1CC=C(C)C)C[C@H](c1ccc(O)c(CC=C(C)C)c1O)CO2` [Licorisoflavan A], for which, under setting [1], the remaining activity at 17 µM is 10 to 80%.

As for `CC(C)=CCc1cc(-c2coc3cc(O)c(CC=C(C)C)c(O)c3c2=O)ccc1O` [Lupalbigenin], under setting [1], the remaining activity at 17 µM is more than 80%.

On to `CC(C)=CCc1c(O)cc2c(c1O)C(=O)[C@@]1(O)c3ccc(O)cc3O[C@H]1O2` [Lupinol C], for which the remaining activity at 17 µM under setting [1] is more than 80%.

Turning to `CC(C)=CCc1c(O)cc(O)c2c(=O)c(-c3ccc(O)cc3)coc12` [Lupiwighteone], under setting [1], the remaining activity at 17 µM is more than 80%.

With `CC(C)=CCc1c(O)cc2occ(-c3ccc(O)cc3O)c(=O)c2c1O` [Luteone], under setting [1], the remaining activity at 17 µM is more than 80%.

On to `COc1cc(O)c2c(c1CC=C(C)C)O[C@H](c1cc(CC=C(C)C)c(O)cc1O)CC2=O` [Maackiaflavanone], for which the IC50 turned out to be 3 µM. The remaining activity at 17 µM under setting [2] was less than 10%.

As to `CC(C)=CCc1c(-c2ccc(O)cc2O)oc2c3c(cc(O)c2c1=O)OC(C)(C)C=C3` [Morusin], under setting [2], the remaining activity at 17 µM was in the range of 10 to 80%.

For `CC(C)=CCc1c(-c2ccc(O)cc2O)oc2c(CC=C(C)C)c(O)cc(O)c2c1=O` [Mulberrin], the remaining activity at 17 µM under setting [1] was more than 80%.

On to `CC(C)=CCCC1=C[C@@H](c2c(O)cc3oc(-c4ccc(O)cc4O)cc(=O)c3c2O)[C@H](C(=O)c2ccc(O)cc2O)[C@@H](c2ccc(O)cc2O)C1` [Multicaulisin], for which the IC50 was determined as 17 µM. The remaining activity at 17 µM under setting [2] was less than 10%.

For `CC(C)=CCc1cc(-c2coc3cc(O)ccc3c2=O)ccc1O` [Neobavaisoflavone], the remaining activity at 17 µM under setting [1] lay in the range of 10 to 80%.

Consider `CC(C)=CCc1c2c(c3occ(-c4ccc(O)cc4)c(=O)c3c1O)C=CC(C)(C)O2` [Osajin], for which the remaining activity at 17 µM under setting [2] was more than 80%.

As to `CC(C)=CCc1c(O)ccc2c1O[C@H]1c3ccc(O)cc3OC[C@@H]21` [Phaseollidin], under setting [1], the remaining activity at 17 µM was more than 80%.

With `CC(C)=CCc1c(O[C@@H]2O[C@H](CO)[C@@H](O)[C@H](O)[C@H]2O)cc(O)c2c1O[C@H](c1ccc(O)cc1)[C@@H](O)C2=O` [Phellamurin], the remaining activity at 17 µM under setting [1] was more than 80%.

With `O=C1CC(c2ccccc2)Oc2cc(O)cc(O)c21` (centres unmarked) [Pinocembrin], the “Mpro inhibitory activity (comparison in words)” value was “relatively poor inhibition”.

Take `COc1ccc(-c2oc3c(CC=C(C)C)c(O)cc(O)c3c(=O)c2O[C@@H]2O[C@@H](C)[C@H](O)[C@@H](O)[C@H]2O[C@@H]2O[C@H](CO)[C@@H](O)[C@H](O)[C@H]2O)cc1` [Sagittatoside A]: the remaining activity at 17 µM under setting [1] is more than 80%.

Take `COc1ccc(-c2oc3c(CC=C(C)C)c(O)cc(O)c3c(=O)c2O[C@@H]2O[C@@H](C)[C@H](O)[C@@H](O)[C@H]2O[C@@H]2OC[C@@H](O)[C@H](O)[C@H]2O)cc1` [Sagittatoside B]: the remaining activity at 17 µM under setting [1] was more than 80%.

Regarding `COc1ccc(-c2oc3c(CC=C(C)C)c(O)cc(O)c3c(=O)c2O[C@@H]2O[C@@H](C)[C@H](O)[C@@H](OC(C)=O)[C@H]2O[C@@H]2O[C@H](CO)[C@@H](O)[C@H](O)[C@H]2O)cc1` [Sagittatoside C], the remaining activity at 17 µM under setting [1] was more than 80%.

As for `CC(C)=CCCC1(C)CCc2c(cc(O)c3c2OC(c2ccc(O)cc2O)CC3=O)O1` (centres unmarked) [Sanggenol L], the remaining activity at 17 µM under setting [1] is more than 80%.

As for `CC(C)=CCC/C(C)=C/Cc1c(O)c(CC=C(C)C)cc(C2CC(=O)c3c(O)cc(O)cc3O2)c1O` (centres unmarked) [Sanggenol P], the remaining activity at 17 µM under setting [1] is more than 80%.

Regarding `CC(C)=CCCC1(C)C=Cc2c(ccc([C@@H]3CC(=O)c4c(O)cc(O)cc4O3)c2O)O1` (some centres unmarked) [Sanggenon N], under setting [1], the remaining activity at 17 µM is more than 80%.

With `CC(C)=CC[C@]12Oc3cc(O)c([C@H]4C=C(C)C[C@H](c5ccc(O)cc5O)[C@H]4C(=O)c4cc(O)cc(O)c4)c(O)c3C(=O)[C@@]1(O)Oc1cc(O)ccc12` [Sanggenone C], the remaining activity at 17 µM under setting [1] is less than 10%.

In the case of `CC(C)=CC[C@]12Oc3cc(O)c([C@@H]4C=C(C)C[C@H](c5ccc(O)cc5O)[C@H]4C(=O)c4cc(O)cc(O)c4)c(O)c3C(=O)[C@@]1(O)Oc1cc(O)ccc12` [Sanggenone D], the remaining activity at 17 µM under setting [1] is less than 10%.

Consider `CC(C)=CCCC1(C)C=Cc2c(O)ccc(-c3oc4cc(O)cc(O)c4c(=O)c3CC=C(C)C)c2O1` (centres unmarked) [Sanggenone K], for which, under setting [1], the remaining activity at 17 µM was more than 80%.

In the case of `CC(C)=CCc1c(O)cc2c(c1O)C(=O)[C@H](O)[C@@H](c1ccc(O)cc1)O2` [Shuterin], the remaining activity at 17 µM under setting [1] was more than 80%.

Turning to `COc1cc(O)c(CC=C(C)C)c2oc(-c3ccc(O)cc3)c(O)c(=O)c12` [Sophoflavescenol], the remaining activity at 17 µM under setting [1] is more than 80%.

Turning to `CC(C)=CCc1c(O)cc(O)c2c1OC(c1cc3c(cc1O)O[C@@H](c1ccc(O)cc1)[C@@H]3c1cc(O)cc(O)c1)CC2=O` (some centres unmarked) [Sophoraflavanone H], the remaining activity at 17 µM under setting [1] was more than 80%.

For `C=C(C)[C@H](CC=C(C)C)Cc1c(O)cc(O)c2c1OC(c1cc3c(cc1O)O[C@@H](c1ccc(O)cc1)[C@@H]3c1cc(O)cc(O)c1)CC2=O` (some centres unmarked) [Sophoraflavanone I], the remaining activity at 17 µM under setting [1] was 10 to 80%.

For the compound `O=C1CC(c2ccc(O)cc2O)Oc2cc(O)cc(O)c21` (centres unmarked) [Steppogenin], the remaining activity at 17 µM under setting [1] was more than 80%.

For the compound `COc1c(-c2ccc(O)cc2)oc2cc(O)c(CC=C(C)C)c(O)c2c1=O` [Topazolin], the remaining activity at 17 µM under setting [1] was more than 80%.

For `COc1c(-c2cc(O)c(O)c(CC=C(C)C)c2)oc2cc(O)cc(O)c2c1=O` [Uralenol-3-methylether], under setting [1], the remaining activity at 17 µM is more than 80%.

In the case of `CC(C)=CCc1cc(-c2oc3cc(O)cc(O)c3c(=O)c2O)cc(O)c1O` [Uralenol], under setting [1], the remaining activity at 17 µM was more than 80%.

Consider `CC(C)=CCc1c(O)cc2occ(-c3ccc(O)cc3)c(=O)c2c1O` [Wighteone], for which the remaining activity at 17 µM under setting [1] was more than 80%.

The values above are taken from patent US20240016777A1, “COMPOUNDS AND METHODS FOR TREATING VIRAL INFECTIONS” (priority 2020, published 2024).
